“Also recorded” adds a separate entry of the source.
Experiments:
[1] = tested on: refractory chronic cough (RCC); assay: Clinical Trial 2: objective cough frequency (VitaloJAK 24-hour recording) in RCC patients; assay type: in vivo, human; design: Cough frequency, Ln Mean (SE), Treatment, 8 hours (GEE) / Cough frequency, Ln Mean (SE), Treatment, 4 hours (GEE) / Cough frequency, Ln Mean (SE), Treatment, 24 hours (GEE): unit not given here
Description: The primary objective of the study was to assess the effectiveness of AX-8 (the study drug) for the treatment of RCC and associated upper airway symptoms after one dose of treatment (an orally disintegrating tablet (ODT) having 5 mg AX-8, administered orally and dissolved on the tongue) in reducing awake cough frequency compared to baseline, for the purpose of planning a future randomized controlled trial. Subjects took a single orally disintegrating tablet (ODT) with 5 mg AX-8 in the morning on the first day of the treatment period (Day 1). This Investigational Medical Product (IMP) was let to dissolve on the tongue. […] Objective cough frequency was measured as 24-hour sound recordings using a custom-built digital recording device (VitaloJAK, Vitalograph, Ltd). VitaloJAK™ is a semi-automated 24-hour ambulatory cough monitoring system (Vitalograph; Buckinghamshire, England) operating in a manner which completely replicates routine practice. The 24-hour recordings are compressed using custom designed compression software, using an algorithm. The VitaloJAK™ is a reliable, robust and efficient tool for the objective measurement of cough frequency. Importantly it reduces 24-hour recordings by up to 98% whilst preserving close to 100% of recorded cough sounds. It is worn like a Holter monitor, with a single sensor affixed to the patient's chest wall. An optional second channel via a conventional microphone (worn, for example, on the patient's shirt) allows quality assurance with human intervention. The device itself is attached on the trousers, skirt, etc. The 24-hour cough frequency (coughs per hour) for a specified visit was calculated as: 24-hour cough frequency=(total number of cough events during the monitoring period (24-hour interval))/24. Awake cough frequency=(total number of cough events during the monitoring period (24-hour interval) while the subject was awake)/(total duration (in hours) during the monitoring period (24-hour interval) that the subject was awake). Percent change in awake cough frequency=[(Change from baseline in awake cough frequency×100)/(Baseline awake cough frequency)]. The proportion of participants with ≥30% of reduction from baseline in awake cough frequency is the number of participants with ≤−30% change in awake cough frequency divided by the total number of participants with available data. For awake and asleep cough frequencies, baseline and treatment data were compared using Wilcoxon signed rank test due to the skewed nature of the data. For 24 hour-, 8 hour-, and 4 hour-cough frequencies, baseline and treatment data were compared using General Estimating Equations (GEE) models. Prior to analysis, these cough count data were natural log (Ln) transformed in order to normalise the distribution of the data. As some individual hourly cough counts were zero, 0.1 was added to all values prior to transformation.

[2] = Clinical Trial 2: safety and tolerability in RCC patients; assay type: in vivo, human; conditions: single 5 mg ODT
Excerpt: Safety assessments consisted of monitoring and recording protocol-defined adverse events (AEs) and serious adverse events (SAEs); vital signs; physical examinations; clinical laboratory assessments; electrocardiograms (ECGs); and other protocol-specified tests that were deemed critical to the safety evaluation of the study drug.

[3] = target: T1, hTRPV1 (Homo sapiens, UniProt Q8NER1); assay: FLIPR calcium assay, selectivity against hTRPV1 (expressed in HEK-293); assay type: cell-based
T1 construct: expressed in transfected cells; host or cells: HEK-293
Description: (§1) Similarly, selectivity against hTRPA1 (expressed in CHO) and hTRPV1 (expressed in HEK-293) was assessed using FLIPR® calcium assay (at 100 μM, i.e., 10-fold more than the concentration for maximal response; see FIG. 12). […] For the agonist effect assessment, the effect of AX-8 was evaluated in the absence of the positive control agonist. The maximal signal elicited in the presence of the respective agonist (300 μM mustard oil for TRPA1; 3 μM capsaicin for TRPV1) was set to 100% activation and the signal in the presence of the vehicle control (HB-PS) was set to 0% activation. For the antagonist effect assessment, the channels were activated with the respective positive control agonist (100 μM mustard oil for TRPA1; 0.1 μM capsaicin for TRPV1). The effects of AX-8 to inhibit the signal was examined after agonist stimulation and compared to the respective positive control antagonist (3 μM ruthenium red). For each channel, the signal elicited in the presence of the respective positive control agonist was set to 100 (0% inhibition) and the signal in the presence of the respective positive control antagonist was set to 0 (100% inhibition).

[4] = tested on: refractory chronic cough (RCC); assay: Clinical Trial 2: Global Rating of Change Scale (GRCS); assay type: in vivo, human
Excerpt: The GRCS was used by subjects to assess their overall status for the specified periods (the 4-hour period following dose; and the 24-hour period following dose). It consisted of a […] scale ranging from ‘a very great deal better’ to ‘a very great deal worse’.

[5] = target: T2, hTRPA1 (Homo sapiens, UniProt O75762); assay: FLIPR calcium assay, selectivity against hTRPA1 (expressed in CHO); assay type: cell-based
T2 construct: expressed in transfected cells; host or cells: CHO
Description: as §1

[6] = single 5 mg AX-8 ODT, treatment vs baseline

T1 sequence (Q8NER1 whole entry): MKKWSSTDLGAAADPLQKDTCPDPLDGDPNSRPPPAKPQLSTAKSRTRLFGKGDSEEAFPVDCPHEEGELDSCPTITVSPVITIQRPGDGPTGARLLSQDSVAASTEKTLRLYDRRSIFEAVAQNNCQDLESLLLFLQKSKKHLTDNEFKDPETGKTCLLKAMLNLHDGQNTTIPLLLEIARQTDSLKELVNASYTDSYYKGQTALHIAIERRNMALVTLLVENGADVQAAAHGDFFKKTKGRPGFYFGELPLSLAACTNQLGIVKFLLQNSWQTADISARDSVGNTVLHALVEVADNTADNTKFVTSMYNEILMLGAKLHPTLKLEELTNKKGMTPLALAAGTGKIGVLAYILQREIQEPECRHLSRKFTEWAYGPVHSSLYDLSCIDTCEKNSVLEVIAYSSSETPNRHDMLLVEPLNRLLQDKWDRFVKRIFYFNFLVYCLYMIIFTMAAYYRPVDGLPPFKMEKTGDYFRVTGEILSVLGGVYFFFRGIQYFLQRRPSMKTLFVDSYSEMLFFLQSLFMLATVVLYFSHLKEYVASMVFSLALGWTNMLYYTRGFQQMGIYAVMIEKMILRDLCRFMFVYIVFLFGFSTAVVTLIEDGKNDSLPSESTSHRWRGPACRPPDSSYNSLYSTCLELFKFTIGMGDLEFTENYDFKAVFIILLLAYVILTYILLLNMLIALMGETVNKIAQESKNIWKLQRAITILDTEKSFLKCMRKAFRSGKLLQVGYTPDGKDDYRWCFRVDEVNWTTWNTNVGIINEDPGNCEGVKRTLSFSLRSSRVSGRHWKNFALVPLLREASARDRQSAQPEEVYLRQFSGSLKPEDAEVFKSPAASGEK
T2 sequence (O75762 whole entry): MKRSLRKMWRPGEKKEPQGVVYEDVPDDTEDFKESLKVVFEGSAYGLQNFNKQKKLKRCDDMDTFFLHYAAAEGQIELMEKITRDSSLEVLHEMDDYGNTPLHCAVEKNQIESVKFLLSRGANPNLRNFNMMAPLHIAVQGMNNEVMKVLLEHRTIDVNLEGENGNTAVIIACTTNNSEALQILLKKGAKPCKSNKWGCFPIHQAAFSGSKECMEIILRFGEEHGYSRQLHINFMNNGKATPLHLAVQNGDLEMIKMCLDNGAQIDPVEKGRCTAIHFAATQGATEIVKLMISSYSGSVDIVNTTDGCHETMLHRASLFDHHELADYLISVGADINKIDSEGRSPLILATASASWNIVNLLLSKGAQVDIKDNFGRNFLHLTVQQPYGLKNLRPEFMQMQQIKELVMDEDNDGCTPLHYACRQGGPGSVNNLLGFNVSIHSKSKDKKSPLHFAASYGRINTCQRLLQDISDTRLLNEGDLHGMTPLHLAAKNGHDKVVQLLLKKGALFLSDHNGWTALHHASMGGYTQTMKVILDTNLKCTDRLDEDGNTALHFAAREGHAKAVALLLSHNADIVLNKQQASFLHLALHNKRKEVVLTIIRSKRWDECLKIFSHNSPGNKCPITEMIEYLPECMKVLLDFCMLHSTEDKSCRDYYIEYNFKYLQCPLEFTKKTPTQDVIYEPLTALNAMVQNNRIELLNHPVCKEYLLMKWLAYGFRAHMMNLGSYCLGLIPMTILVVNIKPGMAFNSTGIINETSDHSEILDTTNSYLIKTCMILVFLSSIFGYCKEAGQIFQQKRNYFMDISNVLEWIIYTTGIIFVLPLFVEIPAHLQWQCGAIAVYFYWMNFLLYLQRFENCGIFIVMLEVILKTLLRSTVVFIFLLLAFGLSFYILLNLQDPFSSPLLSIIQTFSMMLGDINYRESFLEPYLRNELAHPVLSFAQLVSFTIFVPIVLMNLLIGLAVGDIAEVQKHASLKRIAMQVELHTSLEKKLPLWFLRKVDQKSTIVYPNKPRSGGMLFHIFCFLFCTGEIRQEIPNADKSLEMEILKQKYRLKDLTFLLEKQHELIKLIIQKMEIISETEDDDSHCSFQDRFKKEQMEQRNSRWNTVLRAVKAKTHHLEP

## CC(C)OC(=O)CNC(=O)[C@@H]1C[C@H](C)CC[C@H]1C(C)C [AX-8, [((1R,2S,5R)-2-isopropyl-5-methyl-cyclohexanecarbonyl)-amino]-acetic acid isopropyl ester]
[1]; 4/12 subjects
  subjects with ≥30% reduction in 24-hour cough frequency per hour: 33.3%
  subjects with ≥30% reduction in awake cough frequency per hour: 33.3%
[1]; 5/12 subjects
  subjects with ≥30% reduction in 4-hour cough frequency per hour: 41.7%
[1]; 7/12 subjects
  subjects with ≥30% reduction in 8-hour cough frequency per hour: 58.3%
[1]; 95% CI −0.53 to 0.20, p=0.368
  Treatment ratio, 24 hours (GEE): −0.166
[1]; from 7.1 to 3.7, may not be statistically significant
  reduction in cough frequency during sleep: 48%
[1]; from 64.1 to 54.8
  reduction in cough frequency during waking hours: 14.5%
[1]; natural log transformed, 0.1 added, baseline 2.87 (0.19)
  Cough frequency, Ln Mean (SE), Treatment, 24 hours (GEE): 2.70 (0.33)
[1]; natural log transformed, 0.1 added, baseline 3.72 (0.22)
  Cough frequency, Ln Mean (SE), Treatment, 8 hours (GEE): 3.26 (0.39)
[1]; natural log transformed, 0.1 added, baseline 3.92 (0.19)
  Cough frequency, Ln Mean (SE), Treatment, 4 hours (GEE): 3.38 (0.39)
[1]; p=0.033
  Treatment ratio (95% CI), 8 hours (GEE): −0.461 (−0.88 to −0.04)
[1]; p=0.047
  Treatment ratio (95% CI), 4 hours (GEE): −0.54 (−1.08 to −0.01)
[1]; single 5 mg AX-8 ODT, n=12, baseline 7.1, p=0.272 Wilcoxon
  Cough frequency, Median, Treatment, Asleep: 3.7 (0.6-17.5) coughs/hour
[1]; single 5 mg AX-8 ODT, n=12, baseline 48.1
  Cough frequency, Median, Treatment, 24 hours: 44.3 coughs/hour
[1]; single 5 mg AX-8 ODT, n=12, baseline 64.1, p=0.034 Wilcoxon
  Cough frequency, Median, Treatment, Awake: 54.8 (16.4-79.5) coughs/hour
[1]; single 5 mg AX-8 ODT, n=12, baseline 71.0
  Cough frequency, Median, Treatment, 4 hours: 53.4 coughs/hour
[1]; single 5 mg AX-8 ODT, n=12, baseline 75.5
  Cough frequency, Median, Treatment, 8 hours: 45.4 coughs/hour
[1]; [6]
  Cough frequency, Change of median, 4 hours: −24.8%
  Cough frequency, Change of median, 8 hours: −39.9%
  Cough frequency, Change of median, 24 hours: −7.90%
  Cough frequency, Change of median, Asleep: −47.9%
  Cough frequency, Change of median, Awake: −14.5%
[1]; treatment vs baseline, p=0.033
  Percentage Change, 8 hours (GEE): −36.9%
[1]; treatment vs baseline, p=0.047
  Percentage Change, 4 hours (GEE): −42.0%
[1]; treatment vs baseline, p=0.368
  Percentage Change, 24 hours (GEE): −15.3%
[2]
  compound-related adverse effects: No compound-related adverse effects were observed
[3]; at 100 μM, channel activated with 0.1 μM capsaicin, control antagonist 3 μM ruthenium red
  antagonistic interaction with TRPV1: no agonistic or antagonistic interactions
[3]; concentrations ≤100 μM, % of capsaicin maximal response, n=4
  agonistic activity on hTRPV1: no agonistic or antagonistic interactions; also recorded: no agonistic activity on hTRPV1
[4]; 4 hours after treatment, n=12
  GRCS Cough Frequency: patients rating about the same, n (%): 7 (58.3%)
  GRCS Cough Frequency: patients rating better, n (%): 4 (33.3%)
  GRCS Cough Frequency: patients rating worse, n (%): 1 (8.3%)
  GRCS Cough Severity: patients rating about the same, n (%): 6 (50%)
  GRCS Cough Severity: patients rating better, n (%): 5 (41.7%)
  GRCS Cough Severity: patients rating worse, n (%): 1 (8.3%)
[4]; 24 hours after treatment, n=11
  GRCS Cough Frequency: patients rating about the same, n (%): 6 (54.5%)
  GRCS Cough Frequency: patients rating better, n (%): 4 (36.4%)
  GRCS Cough Frequency: patients rating worse, n (%): 1 (9.1%)
  GRCS Cough Severity: patients rating about the same, n (%): 6 (54.5%)
  GRCS Cough Severity: patients rating better, n (%): 4 (36.4%)
  GRCS Cough Severity: patients rating worse, n (%): 1 (9.1%)
[5]; at 100 μM, channel activated with 100 μM mustard oil, control antagonist 3 μM ruthenium red
  antagonistic interaction with TRPA1: no agonistic or antagonistic interactions
[5]; concentrations ≤100 μM, % of mustard oil maximal response, n=4
  agonistic activity on hTRPA1: no agonistic or antagonistic interactions; also recorded: no significant agonistic activity on hTRPA1

From US12167995B2, “[((1R,2S,5R)-2-isopropyl-5-methyl-cyclohexanecarbonyl)-amino]-acetic acid isopropyl ester for treatment of chronic cough” (AXALBION SA, priority 2019, dated 2024)
